The record followed here is ChEMBL document CHEMBL1201862, “PubChem BioAssay data set” (2004).

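Cultured in 96-well plates, cells were exposed to test compound for 48 hours across five concentrations. The concentration for 50% growth inhibition is given as GI50.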 Active and inactive are the calls of the source. Cut-off read from the data, not from the text of the source: active = GI50 up to about 1.1 µM and inactive = higher.

What all share (test): inhibition of tumour cell growth, NCI panel, 48 h
In experiment [1] the test system is OVCAR-5.
The subject of experiment [2] is HT-29.
Experiment [3] relates to OVCAR-3.
The test system of experiment [4] is HOP-62.
For experiment [5], the system named is HL-60.
For experiment [6], the system named is LOX IMVI.
In experiment [7] the test system is NCI-H226.
The subject of experiment [8] is MOLT-4.
The subject of experiment [9] is CAKI-1.
Experiment [10] has as its system SF-539.
Experiment [11] concerns 786-0.
The subject of experiment [12] is U-251.
Experiment [13] relates to SNB-75.
Experiment [14] deals with A498.
The test system of experiment [15] is KM12.
In experiment [16] the test system is HOP-92.
In experiment [17] the test system is M14.
In experiment [18] the test system is UACC-257.
For experiment [19], the system named is HCC 2998.

As for `COC(=O)Nc1nc2cc(NS(=O)(=O)c3ccc(Cl)cc3)ccc2[nH]1`, the GI50 was 17.9 µM (inactive) in experiment [1]; 4.26 µM (inactive) in experiment [2]; 3.29 µM (inactive) in [3]; 10.7 µM (inactive) in [4]; 4.15 µM (inactive) in [5]; 4.44 µM (inactive) in experiment [6]. In addition, the GI50 was 10.6 µM (inactive) in [7]; 4.53 µM (inactive) in experiment [8]; 3.78 µM (inactive) in [9]; 7.21 µM (inactive) in experiment [10]; 17.7 µM (inactive) in experiment [11]; 12.2 µM (inactive) in experiment [12]. Moreover, the GI50 is 2.35 µM (inactive) in experiment [13]; 3.05 µM (inactive) in [14]; 3.61 µM (inactive) in [15]; 1.84 µM (inactive) in experiment [16]; 3.77 µM (inactive) in experiment [17].
Turning to `CC(=O)N(C(C)=O)n1nc2c(n1)C(=O)c1ccccc1C2=O`, the GI50 is > 100 µM (inactive) in experiment [1]; > 100 µM (inactive) in [2]; 81.5 µM (inactive) in experiment [18]; 28.1 µM (inactive) in experiment [3]; > 100 µM (inactive) in [4]; > 100 µM (inactive) in [5]. Also, the GI50 in experiment [6], in experiment [8], in [9], in experiment [10], in [11] and in experiment [12] was > 100 µM (inactive) throughout. The GI50 in experiment [14], in [15], in experiment [16] and in experiment [17] was > 100 µM (inactive) each time.
In the case of `CC(=O)CC1=C(OC(C)C)C2(OCCO2)C1O` (configuration not stated), the GI50 in experiment [1], in experiment [2], in experiment [18], in [3], in [4] and in [5] was > 100 µM (inactive) in each case. For the same compound, the GI50 in experiment [6], in experiment [7], in [8], in experiment [9], in experiment [10] and in experiment [11] was > 100 µM (inactive) each time. For the same compound, the GI50 in [12], in [13], in experiment [14], in experiment [15], in experiment [16] and in experiment [17] was > 100 µM (inactive) each time.
As for `CCOC1CC(=O)c2c(Br)sc(Br)c21` (configuration not stated), the GI50 was 23.7 µM (inactive) in experiment [1]; 21.3 µM (inactive) in [2]; 21.9 µM (inactive) in experiment [19]; 16.9 µM (inactive) in [18]; 14.6 µM (inactive) in [3]; 18.5 µM (inactive) in experiment [4]. Besides, the GI50 was 20.4 µM (inactive) in experiment [5]; 19.5 µM (inactive) in [6]; 14.3 µM (inactive) in experiment [8]; 17.3 µM (inactive) in [9]; 26.4 µM (inactive) in [10]; 30.7 µM (inactive) in [11]. Further, the GI50 in experiment [12] is 16.9 µM (inactive); in experiment [13], 19.1 µM (inactive); in experiment [14], 32.4 µM (inactive); in experiment [15], 19.3 µM (inactive); in [16] it was 17.5 µM (inactive); in experiment [17], 17.1 µM (inactive).
Regarding `O=C(NCCN1CCCCC1)c1ccc(Br)cc1`, the GI50 in experiment [1], in [2], in experiment [19], in experiment [18], in experiment [3] and in experiment [4] was > 100 µM (inactive) throughout. In addition, the GI50 in experiment [5] was 2.81 µM (inactive); in experiment [6], > 100 µM (inactive); in experiment [8], > 100 µM (inactive); in [9] it was > 100 µM (inactive); in experiment [11], > 100 µM (inactive); in experiment [12], > 100 µM (inactive). The GI50 was 54.3 µM (inactive) in experiment [13]; 42.8 µM (inactive) in experiment [14]; > 100 µM (inactive) in [15]; > 100 µM (inactive) in experiment [16]; > 100 µM (inactive) in experiment [17].
As to `CCCCCCCCCCCCCCCCCCNc1ccn(C2OC(COP(=O)(O)OCC3OC(n4cc(F)c(=O)[nH]c4=O)CC3O)C(O)C2O)c(=O)n1` (configuration not stated), the GI50 in experiment [1] was 15 µM (inactive); in experiment [2], 5.38 µM (inactive); in experiment [19], < 0.01 µM (active); in experiment [18], > 89.7 µM (inactive); in [3], 7.67 µM (inactive); in experiment [4], 0.356 µM (active). Moreover, the GI50 in experiment [5] is 0.678 µM (active); in experiment [6] it was 1.36 µM (inactive); in [8] it was 1.63 µM (inactive); in experiment [9] it was 1.16 µM (inactive); in experiment [10], 0.207 µM (active); in experiment [11], 2.19 µM (inactive). In addition, the GI50 is 6.28 µM (inactive) in [12]; 1.18 µM (inactive) in [13]; 33.3 µM (inactive) in [14]; 15.5 µM (inactive) in experiment [15]; > 100 µM (inactive) in experiment [16]; 3.31 µM (inactive) in experiment [17].
Take `OC1CC(O)c2c(Cl)sc(Cl)c21` (configuration not stated): the GI50 in [1] is 28.8 µM (inactive); in [2], 17.5 µM (inactive); in [18] it was 24.8 µM (inactive); in experiment [3] it was 14.8 µM (inactive); in experiment [4] it was 21.2 µM (inactive); in [5], 30.5 µM (inactive). Also, the GI50 in [6] was 52.6 µM (inactive); in [7], 26.3 µM (inactive); in experiment [8], 51.5 µM (inactive); in [9] it was 31.5 µM (inactive); in experiment [10], > 100 µM (inactive); in [11], 34.4 µM (inactive). Besides, the GI50 is 15.5 µM (inactive) in experiment [12]; 7.67 µM (inactive) in experiment [13]; > 100 µM (inactive) in experiment [14]; 27 µM (inactive) in [15]; 23.4 µM (inactive) in experiment [16]; 35.2 µM (inactive) in experiment [17].
On to `C=C(C)CC1(O)C(=O)C(OCC)=C1OCC` (configuration not stated), for which the GI50 in [1], in experiment [2], in experiment [18], in experiment [3], in experiment [4] and in experiment [5] was > 100 µM (inactive) each time. Moreover, the GI50 in experiment [6], in experiment [7], in [8], in [9], in experiment [10] and in experiment [11] was > 100 µM (inactive) each time. Also, the GI50 in experiment [12] is > 100 µM (inactive); in experiment [13] it was 79.6 µM (inactive); in experiment [14], > 100 µM (inactive); in experiment [15], > 100 µM (inactive); in experiment [16], 48.6 µM (inactive); in experiment [17], > 100 µM (inactive).
Take `CCOC(=O)NN(C(=O)OCC)C(=C(C1=CCCCC1)N1CCOCC1)N(NC(=O)OCC)C(=O)OCC`: the GI50 in [1], in experiment [2], in [19], in experiment [3], in experiment [4] and in [5] was > 100 µM (inactive) throughout. Further, the GI50 in experiment [6], in [7], in [8], in experiment [9], in experiment [11] and in experiment [12] was > 100 µM (inactive) each time. Besides, the GI50 in [13], in experiment [14], in experiment [15], in experiment [16] and in experiment [17] was > 100 µM (inactive) in each case.
For `COc1ccc(-c2c(C(=O)Nc3ccccc3)c(-c3ccccc3)n(C3OC(CO)C(O)C(O)C3O)c(=S)c2C#N)cc1` (configuration not stated), the GI50 in experiment [1], in experiment [2], in experiment [19], in experiment [18], in [3] and in [4] was > 100 µM (inactive) in each case. Further, the GI50 in experiment [5], in experiment [6], in experiment [7], in [8], in experiment [9] and in [11] was > 100 µM (inactive) in each case. Further, the GI50 in [12], in experiment [14], in experiment [15], in [16] and in experiment [17] was > 100 µM (inactive) in each case.
As for `NC1CCCCC1.O=P(O)(O)C(O)/C=C/c1ccccc1` (configuration not stated), the GI50 in experiment [1], in experiment [2], in experiment [19], in experiment [18], in experiment [3] and in [4] was > 100 µM (inactive) each time. Besides, the GI50 in experiment [5], in [6], in experiment [7], in experiment [8], in experiment [9] and in [11] was > 100 µM (inactive) in each case. Moreover, the GI50 in [12], in experiment [13], in experiment [14], in experiment [15], in [16] and in experiment [17] was > 100 µM (inactive) each time.
